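Results reflect a 48-hour exposure of cells in 96-well plates to compound at five concentrations. GI50 marks 50% less growth.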 Active and inactive are the calls of the source. No stated cut-off is given here; in the data, active = GI50 up to about 1.1 µM and inactive = higher.
Legend:
Test in all cases: DTP human tumour cell line panel, 48 h
A549 = system: A549
OVCAR-3 = system: OVCAR-3
SW-620 = system: SW-620
786-0 = system: 786-0
UACC-257 = system: UACC-257
HCC 2998 = system: HCC 2998
SN12C = system: SN12C
DU-145 = system: DU-145
SK-OV-3 = system: SK-OV-3
TK-10 = system: TK-10
U-251 = system: U-251
NCI-H522 = system: NCI-H522
SF-539 = system: SF-539
CCRF-CEM = system: CCRF-CEM
SF-295 = system: SF-295
HL-60 = system: HL-60
M14 = system: M14
T47D = system: T47D
KM12 = system: KM12
HOP-62 = system: HOP-62
HCT-116 = system: HCT-116
RXF 393 = system: RXF 393
MOLT-4 = system: MOLT-4
HOP-92 = system: HOP-92
Hs-578T = system: Hs-578T
NCI-H460 = system: NCI-H460
Malme-3M = system: Malme-3M
OVCAR-5 = system: OVCAR-5
OVCAR-8 = system: OVCAR-8
SK-MEL-5 = system: SK-MEL-5
EKVX = system: EKVX
NCI-H226 = system: NCI-H226
COLO 205 = system: COLO 205
MCF7 = system: MCF7
IGROV-1 = system: IGROV-1
LOX IMVI = system: LOX IMVI
SK-MEL-28 = system: SK-MEL-28
PC-3 = system: PC-3
HCT-15 = system: HCT-15
MDA-MB-231 = system: MDA-MB-231
MDA-MB-435 = system: MDA-MB-435
SF-268 = system: SF-268
CAKI-1 = system: CAKI-1
SNB-75 = system: SNB-75
SR = system: SR
HT-29 = system: HT-29
UACC-62 = system: UACC-62
SK-MEL-2 = system: SK-MEL-2
SNB-19 = system: SNB-19
K562 = system: K562
MDA-N = system: MDA-N
OVCAR-4 = system: OVCAR-4
NCI/ADR-RES = system: NCI/ADR-RES
A498 = system: A498
ACHN = system: ACHN
NCI-H23 = system: NCI-H23
RPMI-8226 = system: RPMI-8226
UO-31 = system: UO-31

For `CCOC(=O)CC1c2ccc(O)cc2OC(=O)C1c1ccc([N+](=O)[O-])cc1` (configuration not stated), the GI50 (A549) was 27.5 µM (inactive), the GI50 (OVCAR-3) was 28.8 µM (inactive) and the GI50 (SW-620) was 65.6 µM (inactive). For the same compound, the GI50 (786-0) was 41.3 µM (inactive), the GI50 (UACC-257) was 28.8 µM (inactive) and the GI50 (HCC 2998) was 20.3 µM (inactive). For the same compound, the GI50 (SN12C) was 21.8 µM (inactive), the GI50 (DU-145) was 48.9 µM (inactive) and the GI50 (SK-OV-3) was 33.3 µM (inactive). For the same compound, the GI50 (TK-10) was 30.3 µM (inactive), the GI50 (U-251) was 35.8 µM (inactive) and the GI50 (NCI-H522) was 18.6 µM (inactive). The GI50 (SF-539) was 31 µM (inactive), the GI50 (CCRF-CEM) was 22.8 µM (inactive) and the GI50 (SF-295) was 38.4 µM (inactive). For the same compound, the GI50 (HL-60) was 34.1 µM (inactive), the GI50 (M14) was 21 µM (inactive) and the GI50 (T47D) was 15.8 µM (inactive). For the same compound, the GI50 (KM12) was 34.3 µM (inactive), the GI50 (HOP-62) was 20.2 µM (inactive) and the GI50 (HCT-116) was 22.5 µM (inactive). For the same compound, the GI50 (RXF 393) was 16.9 µM (inactive), the GI50 (MOLT-4) was 22.8 µM (inactive) and the GI50 (HOP-92) was 20.4 µM (inactive). For the same compound, the GI50 (Hs-578T) was 46.7 µM (inactive), the GI50 (NCI-H460) was 31.3 µM (inactive) and the GI50 (Malme-3M) was 27.4 µM (inactive). For the same compound, the GI50 (OVCAR-5) was 58.6 µM (inactive), the GI50 (OVCAR-8) was 29 µM (inactive) and the GI50 (SK-MEL-5) was 15.4 µM (inactive). The GI50 (EKVX) was 39.7 µM (inactive), the GI50 (NCI-H226) was 14.2 µM (inactive) and the GI50 (COLO 205) was 15.7 µM (inactive). For the same compound, the GI50 (MCF7) was 14.8 µM (inactive), the GI50 (IGROV-1) was 21.5 µM (inactive) and the GI50 (LOX IMVI) was 40.7 µM (inactive). For the same compound, the GI50 (SK-MEL-28) was 38 µM (inactive), the GI50 (PC-3) was 22.5 µM (inactive) and the GI50 (HCT-15) was 30.4 µM. The GI50 (MDA-MB-231) was 18.5 µM (inactive), the GI50 (MDA-MB-435) was 25 µM (inactive) and the GI50 (SF-268) was 40 µM (inactive). For the same compound, the GI50 (CAKI-1) was 43 µM (inactive), the GI50 (SNB-75) was 23.9 µM (inactive) and the GI50 (SR) was 31.8 µM (inactive). For the same compound, the GI50 (HT-29) was 35.2 µM (inactive), the GI50 (UACC-62) was 37.2 µM (inactive) and the GI50 (SK-MEL-2) was 17 µM (inactive). The GI50 (SNB-19) was 63.5 µM (inactive), the GI50 (K562) was 30.4 µM (inactive) and the GI50 (MDA-N) was 28.6 µM (inactive). The GI50 (OVCAR-4) was 27.7 µM (inactive), the GI50 (NCI/ADR-RES) was 27 µM (inactive) and the GI50 (A498) was 25.6 µM (inactive). The GI50 (ACHN) was 25.2 µM (inactive) and the GI50 (NCI-H23) was 27.7 µM (inactive).

`CC(=O)OC1c2ccccc2CC2(OC(C)=O)c3ccccc3C12` (configuration not stated) was tested, and the GI50 (A549) was > 100 µM (inactive), the GI50 (OVCAR-3) was > 100 µM (inactive) and the GI50 (SW-620) was > 100 µM (inactive). The GI50 (786-0) was > 100 µM (inactive), the GI50 (UACC-257) was > 100 µM (inactive) and the GI50 (HCC 2998) was > 100 µM (inactive). For the same compound, the GI50 (SN12C) was > 100 µM (inactive), the GI50 (RPMI-8226) was > 100 µM (inactive) and the GI50 (DU-145) was > 100 µM (inactive). For the same compound, the GI50 (SK-OV-3) was > 100 µM (inactive), the GI50 (TK-10) was > 100 µM (inactive) and the GI50 (U-251) was > 100 µM (inactive). For the same compound, the GI50 (SF-539) was > 100 µM (inactive), the GI50 (CCRF-CEM) was > 100 µM (inactive) and the GI50 (SF-295) was > 100 µM (inactive). The GI50 (HL-60) was > 10 µM (inactive), the GI50 (M14) was > 100 µM (inactive) and the GI50 (T47D) was > 100 µM (inactive). The GI50 (KM12) was > 100 µM (inactive), the GI50 (HOP-62) was > 100 µM (inactive) and the GI50 (UO-31) was > 100 µM (inactive). For the same compound, the GI50 (HCT-116) was > 100 µM (inactive), the GI50 (RXF 393) was > 100 µM (inactive) and the GI50 (MOLT-4) was > 100 µM (inactive). The GI50 (HOP-92) was 91 µM (inactive), the GI50 (Hs-578T) was > 100 µM (inactive) and the GI50 (NCI-H460) was > 100 µM (inactive). For the same compound, the GI50 (Malme-3M) was > 100 µM (inactive), the GI50 (OVCAR-5) was > 100 µM (inactive) and the GI50 (OVCAR-8) was > 100 µM (inactive). The GI50 (EKVX) was > 100 µM (inactive), the GI50 (NCI-H226) was > 100 µM (inactive) and the GI50 (COLO 205) was > 100 µM (inactive). For the same compound, the GI50 (MCF7) was 80.4 µM (inactive), the GI50 (IGROV-1) was > 100 µM (inactive) and the GI50 (LOX IMVI) was > 100 µM (inactive). The GI50 (SK-MEL-28) was > 100 µM (inactive), the GI50 (PC-3) was > 100 µM (inactive) and the GI50 (HCT-15) was > 100 µM. For the same compound, the GI50 (MDA-MB-231) was > 100 µM (inactive), the GI50 (MDA-MB-435) was > 100 µM (inactive) and the GI50 (SF-268) was > 100 µM (inactive). For the same compound, the GI50 (CAKI-1) was > 100 µM (inactive), the GI50 (SNB-75) was > 100 µM (inactive) and the GI50 (SR) was > 100 µM (inactive). For the same compound, the GI50 (HT-29) was > 100 µM (inactive), the GI50 (UACC-62) was > 100 µM (inactive) and the GI50 (SK-MEL-2) was > 100 µM (inactive). The GI50 (SNB-19) was > 100 µM (inactive), the GI50 (K562) was > 100 µM (inactive) and the GI50 (MDA-N) was > 100 µM (inactive). The GI50 (OVCAR-4) was > 100 µM (inactive), the GI50 (NCI/ADR-RES) was > 100 µM (inactive) and the GI50 (A498) was > 100 µM (inactive). The GI50 (ACHN) was > 100 µM (inactive) and the GI50 (NCI-H23) was > 100 µM (inactive).
